Data taken from patent publication US9790252B2, “2-fluorinated riboses and arabinoses and methods of use and synthesis” (CORNELL UNIVERSITY, priority 2009, dated 2017).

Key:
[1] = molecular target: T1, SirT3 (Homo sapiens, UniProt Q9NTG7); assay: SirT3 activity assay (HPLC of 2′- and 3′-AADPR); assay type: biochemical; details: 800 μM NAD+, 500 μM H3 peptide, pH 7.5, 2 hours at 37° C.
T1 sequence (Q9NTG7 1-399): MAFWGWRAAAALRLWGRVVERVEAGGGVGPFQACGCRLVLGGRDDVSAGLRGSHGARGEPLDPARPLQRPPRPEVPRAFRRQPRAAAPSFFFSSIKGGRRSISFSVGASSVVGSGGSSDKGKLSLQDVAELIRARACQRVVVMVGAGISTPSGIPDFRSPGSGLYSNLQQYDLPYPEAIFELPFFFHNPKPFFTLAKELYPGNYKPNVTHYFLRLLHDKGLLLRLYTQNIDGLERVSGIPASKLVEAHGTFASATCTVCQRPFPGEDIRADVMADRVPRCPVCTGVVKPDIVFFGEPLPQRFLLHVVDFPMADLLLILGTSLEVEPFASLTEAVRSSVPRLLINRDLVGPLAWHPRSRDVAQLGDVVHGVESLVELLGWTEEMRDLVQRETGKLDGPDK
Experimental: (§1) Reactions containing 800 μM NAD^+, 500 μM H3 peptide, and 100 mM phosphate buffer at pH 7.5, with varying concentrations of 2′-deoxy-2′-fluoro-nucleosides or nucleotides were initiated by addition of SirT3 enzyme to a concentration of 13.9 μM. Reactions were incubated for 2 hours at 37° C. and quenched by addition of trifluoroacetic acid to pH 2. After centrifugation to remove precipitates, reactions were injected on HPLC for activity analysis. Production of 2′- and 3′-AADPR were analyzed at 260 nm.
as §1, with “SirT3 Activity Assay: Reactions containing” for “Reactions containing”, “concentrations of 2′-deoxy-2′-chloro-nucleosides were initiated” for “concentrations of 2′-deoxy-2′-fluoro-nucleosides or nucleotides were initiated”

[2] = tested on: Neuro2A cells; assay: Toxicity to Neuro2A cells (MTT); assay type: cell-based; details: for 100 μM absorbance / 100 μM relative viability / 500 μM absorbance / 500 μM relative viability: 12 hours; for 100 μM absorbance / 500 μM absorbance: 570 nm
Experimental: 6. Neuro2A cells were seeded in 96-well plate at a density of 25,000 cells/well the day before the experiment starts;
7. After the cells reach 50˜60% confluency, media was taken out, and 100 μL of fresh media was added to each well;
8. […]
9. After 12 hours' incubation at 37° C., the media was taken out, 100 μL of fresh media was added to each well along with 20 μL of 5 mg/mL of MTT solution (in PBS);
10. After 1.5 hours' incubation at 37° C., media was taken out and 100 μL of DMSO was added to each well, the plate was mixed on shaker for 5 mins;
Absorbance was measured at 570 nm.
Assay for Determining Toxicity to HEK293 and Neuro2A Cells • 1. HEK293 and Neuro2A cells were seeded in 96-well plate at a density of 25,000 cells/well the day before the experiment starts; • 2. After the cells reach 50˜60% confluency, media was taken out, and 100 μL of fresh media was added to each well; • 3. […] After 12 hours' incubation at 37° C., the media was taken out, 100 μL of fresh media was added to each well along with 20 μL of 5 mg/mL of MTT solution (in PBS); • 5. After 2 hours' incubation at 37° C., media was taken out and 100 μL of DMSO was added to each well, the plate was mixed on shaker for 5 mins; • 6. Absorbance was measured at 570 nm.

[3] = molecular target: T2, CD38 (Homo sapiens, UniProt P28907); assay: CD38 activity assay (NGD+ turnover, 295 nm absorbance); assay type: biochemical
T2 sequence (P28907 1-300): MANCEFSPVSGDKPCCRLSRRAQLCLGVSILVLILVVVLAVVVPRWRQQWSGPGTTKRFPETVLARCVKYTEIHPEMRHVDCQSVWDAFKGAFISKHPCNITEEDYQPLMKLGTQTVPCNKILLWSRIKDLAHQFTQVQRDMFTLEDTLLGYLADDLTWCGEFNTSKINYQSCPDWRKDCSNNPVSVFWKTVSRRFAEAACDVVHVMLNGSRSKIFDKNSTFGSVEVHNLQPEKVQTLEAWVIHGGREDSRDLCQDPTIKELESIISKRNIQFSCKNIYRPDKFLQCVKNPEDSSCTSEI
Experimental: (§2) CD38 (500 nM) in 100 mM phosphate buffer at pH 7.5 was incubated with various concentrations of 2′-deoxy-2′-fluoro-nucleosides and nucleotides for 30 mins at room temperature. 35 μL of the enzyme inhibitor solution was added to a cuvette containing 1 mL of 100 mM phosphate buffer at pH 7.5, containing 200 μM NGD^+. Reaction progress upon initiation by enzyme addition was monitored by 295 nm absorbance.
as §2, with “CD38 Activity Assay: CD38” for “CD38”, “2′-deoxy-2′-chloro-nucleosides were” for “2′-deoxy-2′-fluoro-nucleosides and nucleotides”

[4] = tested on: HEK293 cells; assay: Ribo-F-NR dose response in HEK293 cells (MTT); assay type: cell-based; details: 12 hours; for absorbance: 570 nm
Experimental: 1. HEK293 cells were seeded in 96-well plate at a density of 10,000 cells/well the day before the experiment starts;
2. After the cells reach 50˜60% confluency, media was taken out, and 100 μL of fresh media was added to each well;
3. Ribo-F-NR (stock concentration=5.53 mM) were plated at 11, 22, 27, 44, 55, 83 and 111 μM (in triplicates) concentrations;
4. After 12 hours' incubation at 37° C., the media was taken out, 100 μL of fresh media was added to each well along with 20 μL of 5 mg/mL of MTT solution (in PBS);
5. After 1.5 hours' incubation at 37° C., media was taken out and 100 μL of DMSO was added to each well, the plate was mixed on shaker for 5 mins;
6. Absorbance was measured at 570 nm.

[5] = Mus musculus, N2a, 2′-deoxy-2′-fluoro-nucleosides and nucleotides
[6] = MTT 2 hours, chloro-nucleosides
[7] = control = 1, chloro-nucleosides

Row | Compound | Ki [1] | 100 μM absorbance ([2]; MTT 1.5 hours) | 100 μM relative viability ([2]; control = 1) | 500 μM absorbance ([2]; MTT 1.5 hours) | 500 μM relative viability ([2]; control = 1) | EC50 [2, 5] | further results
1 | NC(=O)c1ccc[n+]([C@@H]2O[C@H](CO)[C@@H](O)C2(F)F)c1 [gem-diF-NR, 1-(2′-deoxy-2′,2′-difluoro-ribofuranosyl)-nicotinamide] | – | 0.8234 | 0.338 | 0.5374 | 0.221 | 61 µM | SirT3 Ki [1]: Ki = high mM
2 | NC(=O)c1ccc[n+]([C@@H]2O[C@H](COP(=O)([O-])O)C(O)C2F)c1 (stereo partly shown) [ribo-F-NMN, 2′-deoxy-2′-fluoro-ribo-nicotinamide mononucleotide] | 106 µM | 2.2023 | 0.905 | 1.7872 | 0.735 | – | EC50 ([2]; 2′-deoxy-2′-fluoro-nucleosides and nucleotides): 1400 µM
3 | NC(=O)c1ccc[n+]([C@@H]2O[C@H](CO)C(O)[C@@H]2F)c1 (stereo partly drawn) [ribo-F-NR, 1-(2-deoxy-2-fluoro-D-ribofuranosyl)-nicotinamide] | 250 µM | 1.8769 | 0.771 | 0.8391 | 0.345 | 281 µM | relative viability ([4]; HEK293, 11 μM): 0.8067; absorbance ([4]; HEK293, 11 μM): 0.1041; relative viability ([4]; HEK293, 22 μM): 0.652; absorbance ([4]; HEK293, 22 μM): 0.08411; relative viability ([4]; HEK293, 27 μM): 0.4806; absorbance ([4]; HEK293, 27 μM): 0.062; relative viability ([4]; HEK293, 44 μM): 0.2539; absorbance ([4]; HEK293, 44 μM): 0.03275; relative viability ([4]; HEK293, 55.3 μM): 0.1163; absorbance ([4]; HEK293, 55.3 μM): 0.015; relative viability ([4]; HEK293, 83 μM): 0.04651; absorbance ([4]; HEK293, 83 μM): 0.006; relative viability ([4]; HEK293, 111 μM): 0.008358; absorbance ([4]; HEK293, 111 μM): 0.001078
4 | NC(=O)c1ccc[n+]([C@@H]2O[C@H](CO)C(O)C2Cl)c1 (stereo partly drawn) [β-ara-Cl-NR, 1-(2′-deoxy-2′-chloro-arabinofuranosyl)-nicotinamide] | 546 µM | – | – | – | – | – | 100 μM absorbance [2, 6]: 0; 100 μM relative viability [2, 7]: 0; 500 μM absorbance [2, 6]: 0; 500 μM relative viability [2, 7]: 0; EC50 ([2]; Mus musculus, N2a, 2′-deoxy-2′-chloro-nucleosides): 9 µM

More lines, in order of falling Ki [1], values ahead:

Row | Ki [1] | Compound | 100 μM absorbance ([2]; MTT 1.5 hours) | 100 μM relative viability ([2]; control = 1) | 500 μM absorbance ([2]; MTT 1.5 hours) | 500 μM relative viability ([2]; control = 1) | EC50 [2, 5] | further results
5 | 623 µM | NC(=O)c1ccc[n+]([C@@H]2O[C@H](CO)C(O)C2F)c1 (stereo partly shown) [ara-F-NR, 1-(2′-deoxy-2′-fluoro-arabinofuranosyl)-nicotinamide] | 2.0227 | 0.831 | 2.0666 | 0.849 | 3840 µM | –
6 | 128 µM | NC(=O)c1ccc[n+]([C@@H]2O[C@H](COP(=O)([O-])O)C(O)C2(F)F)c1 (stereo partly shown) [gem-diF-NMN, 2′-deoxy-2′,2′-difluoro-ribo-nicotinamide mononucleotide] | 1.0774 | 0.443 | 0.0217 | 0.009 | 64 µM | CD38 inhibition (in words) ([3]; at 300 μM): inhibited at 300 μM
7 | 123 µM | NC(=O)c1ccc[n+]([C@@H]2O[C@H](CO)C(O)C2(Cl)Cl)c1 (stereo partly drawn) [β-gem-diCl-NR, 1-(2′-deoxy-2′,2′-dichloro-ribofuranosyl)-nicotinamide] | – | – | – | – | – | inhibition at 500 µM ([3]; at 500 μM, read-out: CD38 % inhibited): 50%; 100 μM absorbance [2, 6]: 2.615; 100 μM relative viability [2, 7]: 1.106; 500 μM absorbance [2, 6]: 2.63; 500 μM relative viability [2, 7]: 1.112; toxicity to Neuro2A (in words) ([2]; at 500 μM): not toxic at 500 μM
